According to ChEMBL document CHEMBL1136786, “2002 Medicinal Chemistry Division Award address: monoamine transporters and opioid receptors. Targets for addiction therapy” (J Med Chem, 2003):
Where “and” joins values, the source holds several entries; their conditions need not be identical. Equal values may be shown once. Calls of active or inactive are those of the source. The rule behind the calls is not given here.

What was measured:
[1] = biological target: D(1A) dopamine receptor (Rattus norvegicus) (UniProt P18901); conditions: Striatum
D(1A) dopamine receptor (Rattus norvegicus), sequence (P18901 whole entry): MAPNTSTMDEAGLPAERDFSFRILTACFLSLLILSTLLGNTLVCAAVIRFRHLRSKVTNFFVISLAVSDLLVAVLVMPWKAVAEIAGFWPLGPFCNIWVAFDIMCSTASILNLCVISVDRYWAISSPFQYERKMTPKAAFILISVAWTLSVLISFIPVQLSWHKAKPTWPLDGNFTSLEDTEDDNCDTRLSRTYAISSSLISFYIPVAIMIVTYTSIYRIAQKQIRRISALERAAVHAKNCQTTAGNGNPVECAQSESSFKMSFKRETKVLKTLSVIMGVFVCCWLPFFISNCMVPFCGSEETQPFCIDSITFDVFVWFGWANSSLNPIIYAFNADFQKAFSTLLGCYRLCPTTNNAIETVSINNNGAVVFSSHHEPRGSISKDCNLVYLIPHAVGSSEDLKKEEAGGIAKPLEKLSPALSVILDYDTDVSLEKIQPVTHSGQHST

[2] = biological target: D(1A) dopamine receptor (Rattus norvegicus) (UniProt P18901); conditions: Striatum; remark: listed apart in the source
[3] = biological target: Sodium-dependent serotonin transporter (Rattus norvegicus, UniProt P31652); test: Inhibition of [3H]paroxetine binding at serotonin transporter was determined
Sodium-dependent serotonin transporter (Rattus norvegicus, UniProt P31652), sequence (P31652 whole entry): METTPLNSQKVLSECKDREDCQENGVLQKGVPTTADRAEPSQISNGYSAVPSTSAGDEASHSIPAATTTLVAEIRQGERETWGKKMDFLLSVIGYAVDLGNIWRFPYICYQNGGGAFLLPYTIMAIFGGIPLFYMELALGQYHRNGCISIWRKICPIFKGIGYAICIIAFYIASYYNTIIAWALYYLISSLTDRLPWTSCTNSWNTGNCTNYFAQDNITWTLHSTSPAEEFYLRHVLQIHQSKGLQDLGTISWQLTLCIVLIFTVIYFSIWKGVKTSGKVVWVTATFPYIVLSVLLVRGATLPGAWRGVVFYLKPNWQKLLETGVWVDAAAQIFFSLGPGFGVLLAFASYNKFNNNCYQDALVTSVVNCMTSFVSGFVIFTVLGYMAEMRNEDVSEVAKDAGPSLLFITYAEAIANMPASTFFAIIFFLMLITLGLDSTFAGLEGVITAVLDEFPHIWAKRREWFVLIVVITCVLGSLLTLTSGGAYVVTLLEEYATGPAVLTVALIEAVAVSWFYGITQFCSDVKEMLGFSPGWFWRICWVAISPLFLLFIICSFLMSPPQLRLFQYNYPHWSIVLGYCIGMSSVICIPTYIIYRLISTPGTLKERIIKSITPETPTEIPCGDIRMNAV

[4] = biological target: Sodium-dependent dopamine transporter (Rattus norvegicus, UniProt P23977); test: Inhibition of [3H]WIN-35428 binding at dopamine transporter was determined
Sodium-dependent dopamine transporter (Rattus norvegicus, UniProt P23977), sequence (P23977 whole entry): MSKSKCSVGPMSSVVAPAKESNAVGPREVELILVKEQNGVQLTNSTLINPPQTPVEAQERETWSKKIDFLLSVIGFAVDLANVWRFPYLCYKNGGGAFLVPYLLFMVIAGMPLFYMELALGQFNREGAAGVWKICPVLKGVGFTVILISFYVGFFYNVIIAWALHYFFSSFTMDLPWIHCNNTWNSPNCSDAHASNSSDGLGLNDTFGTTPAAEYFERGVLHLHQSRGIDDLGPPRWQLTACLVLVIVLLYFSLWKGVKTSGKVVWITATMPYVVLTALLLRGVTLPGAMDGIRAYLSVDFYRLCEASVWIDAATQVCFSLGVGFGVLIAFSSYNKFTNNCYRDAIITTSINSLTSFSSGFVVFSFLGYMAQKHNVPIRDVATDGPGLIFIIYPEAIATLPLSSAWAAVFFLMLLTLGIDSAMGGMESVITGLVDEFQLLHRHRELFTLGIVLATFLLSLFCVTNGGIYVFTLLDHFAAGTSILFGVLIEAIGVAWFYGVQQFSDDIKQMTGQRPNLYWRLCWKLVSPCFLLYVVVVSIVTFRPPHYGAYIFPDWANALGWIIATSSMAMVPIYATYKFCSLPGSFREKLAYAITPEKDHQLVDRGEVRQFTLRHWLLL

[5] = biological target: T1, Norepinephrine transporter (Rattus norvegicus, UniProt Q9WTR4); test: Affinity for norepinephrine transporter determined by [3H]nisoxetine displacement.
T1 sequence (Q9WTR4 whole entry): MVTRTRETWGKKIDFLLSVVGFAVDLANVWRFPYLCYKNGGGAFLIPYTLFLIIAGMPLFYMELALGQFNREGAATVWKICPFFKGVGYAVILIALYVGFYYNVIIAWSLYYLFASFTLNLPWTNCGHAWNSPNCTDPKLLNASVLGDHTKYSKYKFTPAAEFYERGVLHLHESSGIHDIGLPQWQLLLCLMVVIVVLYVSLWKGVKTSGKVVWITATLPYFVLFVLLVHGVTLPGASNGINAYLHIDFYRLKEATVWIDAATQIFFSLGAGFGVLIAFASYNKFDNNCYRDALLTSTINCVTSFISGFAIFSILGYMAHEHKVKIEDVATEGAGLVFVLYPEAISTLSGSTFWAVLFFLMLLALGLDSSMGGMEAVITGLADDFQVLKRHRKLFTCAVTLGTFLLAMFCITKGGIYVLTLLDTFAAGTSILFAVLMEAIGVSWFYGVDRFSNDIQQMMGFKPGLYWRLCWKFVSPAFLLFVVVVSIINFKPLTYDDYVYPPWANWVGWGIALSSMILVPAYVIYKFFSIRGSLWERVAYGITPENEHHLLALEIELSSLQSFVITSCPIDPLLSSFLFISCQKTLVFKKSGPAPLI

[6] = biological target: T1, Norepinephrine transporter; test: Inhibition of [3H]nisoxetine binding at norepinephrine transporter
[7] = biological target: Mu-type opioid receptor (Cavia porcellus) (UniProt P97266); test: Inhibition of [35S]GTP-gamma-S, binding in guines pig caudate stimulated by DAMGO for Opioid receptor mu 1; format: functional
Mu-type opioid receptor (Cavia porcellus), sequence (P97266 whole entry): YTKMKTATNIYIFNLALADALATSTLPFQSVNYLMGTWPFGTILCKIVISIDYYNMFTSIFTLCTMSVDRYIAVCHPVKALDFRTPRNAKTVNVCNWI

[8] = biological target: Kappa-type opioid receptor (Cavia porcellus) (UniProt P41144); test: Inhibition of [35S]GTP-gamma-S, binding in guines pig caudate stimulated by U69, 593 of Opioid receptor kappa 1; format: functional
Kappa-type opioid receptor (Cavia porcellus), sequence (P41144 whole entry): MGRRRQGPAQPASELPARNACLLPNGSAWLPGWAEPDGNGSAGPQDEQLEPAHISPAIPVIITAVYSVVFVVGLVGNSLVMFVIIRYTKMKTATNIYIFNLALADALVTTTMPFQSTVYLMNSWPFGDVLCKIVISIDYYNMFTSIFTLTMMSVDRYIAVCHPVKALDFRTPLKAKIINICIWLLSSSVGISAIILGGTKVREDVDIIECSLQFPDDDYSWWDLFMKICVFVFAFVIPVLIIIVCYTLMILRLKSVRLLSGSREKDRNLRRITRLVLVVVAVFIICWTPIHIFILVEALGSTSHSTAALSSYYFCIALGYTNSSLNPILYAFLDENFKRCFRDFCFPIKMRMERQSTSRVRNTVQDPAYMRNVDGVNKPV

[9] = biological target: Sodium-dependent serotonin transporter (Homo sapiens, UniProt P31645); test: Inhibition of Serotonin (5-HT) reuptake using cloned human transporter was determined
Sodium-dependent serotonin transporter (Homo sapiens, UniProt P31645), sequence (P31645 whole entry): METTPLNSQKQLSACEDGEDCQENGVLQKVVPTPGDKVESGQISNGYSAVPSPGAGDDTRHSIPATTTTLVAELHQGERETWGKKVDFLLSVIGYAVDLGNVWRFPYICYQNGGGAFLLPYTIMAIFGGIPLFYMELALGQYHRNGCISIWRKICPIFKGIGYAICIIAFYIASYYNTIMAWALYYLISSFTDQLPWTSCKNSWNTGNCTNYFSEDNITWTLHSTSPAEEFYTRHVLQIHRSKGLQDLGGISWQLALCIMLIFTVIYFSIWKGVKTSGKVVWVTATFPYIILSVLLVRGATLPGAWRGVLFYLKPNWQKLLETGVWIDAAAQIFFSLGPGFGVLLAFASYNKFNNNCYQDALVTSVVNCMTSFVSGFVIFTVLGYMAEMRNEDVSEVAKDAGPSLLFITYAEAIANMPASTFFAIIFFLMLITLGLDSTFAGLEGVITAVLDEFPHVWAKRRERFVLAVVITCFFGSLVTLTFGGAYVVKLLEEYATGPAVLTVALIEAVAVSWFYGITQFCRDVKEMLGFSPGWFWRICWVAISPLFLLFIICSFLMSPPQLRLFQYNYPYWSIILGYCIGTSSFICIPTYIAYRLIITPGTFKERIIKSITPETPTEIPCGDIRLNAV

[10] = test system: Rattus norvegicus; test: Effective dose of compound required to produce maximal locomotor activity in cocaine-trained rat by intraperitoneal administration; format: functional; conditions: ip
[11] = test system: Rattus norvegicus; test: Effective dose of compound required to produce maximal locomotor activity in rat by intraperitoneal administration; format: functional; conditions: ip
[12] = organism: Mus musculus; test: Antagonistic activity of nicotine-induced analgesia in mice was determined; format: functional
[13] = biological target: Sodium-dependent noradrenaline transporter (Homo sapiens, UniProt P23975); test: Inhibition of Norepinephrine (NA) reuptake using cloned human Norepinephrine transporter was determined
Sodium-dependent noradrenaline transporter, sequence (P23975 whole entry): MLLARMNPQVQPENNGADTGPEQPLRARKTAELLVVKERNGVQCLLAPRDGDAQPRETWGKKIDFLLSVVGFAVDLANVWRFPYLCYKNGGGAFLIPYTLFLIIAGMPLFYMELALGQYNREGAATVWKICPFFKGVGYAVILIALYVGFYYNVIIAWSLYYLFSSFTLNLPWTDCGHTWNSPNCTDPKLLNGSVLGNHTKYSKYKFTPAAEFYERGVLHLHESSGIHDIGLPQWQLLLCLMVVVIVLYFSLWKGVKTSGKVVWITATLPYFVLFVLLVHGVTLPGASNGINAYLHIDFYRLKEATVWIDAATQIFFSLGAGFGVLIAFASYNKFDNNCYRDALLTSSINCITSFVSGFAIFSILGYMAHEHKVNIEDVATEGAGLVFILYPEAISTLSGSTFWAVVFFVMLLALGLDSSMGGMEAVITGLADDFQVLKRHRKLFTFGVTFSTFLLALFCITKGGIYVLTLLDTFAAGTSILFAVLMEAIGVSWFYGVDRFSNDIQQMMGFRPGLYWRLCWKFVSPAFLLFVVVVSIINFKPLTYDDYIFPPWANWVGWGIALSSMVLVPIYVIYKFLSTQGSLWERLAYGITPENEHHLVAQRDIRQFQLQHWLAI

[14] = test system: Rattus norvegicus; test: Maximal locomotor activity of compound compared as a percent of cocaine's effect in rat by intraperitoneal administration; format: functional
[15] = biological target: Sodium-dependent dopamine transporter (Homo sapiens, UniProt Q01959); test: Inhibition of dopamine (DA) reuptake using cloned human dopamine transporter was determined
Sodium-dependent dopamine transporter (Homo sapiens, UniProt Q01959), sequence (Q01959 whole entry): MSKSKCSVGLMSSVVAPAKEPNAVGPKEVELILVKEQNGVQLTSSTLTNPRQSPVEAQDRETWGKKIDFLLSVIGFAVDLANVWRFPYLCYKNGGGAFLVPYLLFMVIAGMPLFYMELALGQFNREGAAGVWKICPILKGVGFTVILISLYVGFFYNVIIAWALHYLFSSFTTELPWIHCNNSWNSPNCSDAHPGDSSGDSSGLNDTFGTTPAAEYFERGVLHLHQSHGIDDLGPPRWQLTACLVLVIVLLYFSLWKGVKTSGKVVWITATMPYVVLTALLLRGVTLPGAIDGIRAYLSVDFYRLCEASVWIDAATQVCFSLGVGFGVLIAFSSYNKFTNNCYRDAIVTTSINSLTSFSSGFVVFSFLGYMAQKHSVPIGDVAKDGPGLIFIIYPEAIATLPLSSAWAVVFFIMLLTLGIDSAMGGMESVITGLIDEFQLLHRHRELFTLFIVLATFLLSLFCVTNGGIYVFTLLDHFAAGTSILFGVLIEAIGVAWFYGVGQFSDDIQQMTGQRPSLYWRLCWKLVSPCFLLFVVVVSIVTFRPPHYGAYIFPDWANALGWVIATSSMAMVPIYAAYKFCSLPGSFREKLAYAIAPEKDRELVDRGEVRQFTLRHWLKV

[16] = test system: Rattus norvegicus; test: Time during which activity returned to baseline level in rat by intraperitoneal administration; format: functional
[17] = organism: Mus musculus; test: Antagonistic activity of nicotine-induced hypothermia in mice was determined; format: functional
[18] = test system: Rattus norvegicus; test: Time taken to produce maximal locomotor activity at 30 min period in rat by intraperitoneal administration; format: functional
[19] = test system: Rattus norvegicus; test: Effective dose of compound required to produce maximal locomotor activity in rat by oral administration; format: functional
[20] = test system: Rattus norvegicus; test: Maximal locomotor activity of compound compared as a percent of cocaine's effect in rat by oral administration; format: functional
[21] = test system: Rattus norvegicus; test: Effective dose of compound required to produce maximal locomotor activity in cocaine-trained rat by oral administration; format: functional
[22] = test system: Rattus norvegicus; test: Time taken to produce maximal locomotor activity at 30 min period in rat by oral administration; format: functional
[23] = test system: Rattus norvegicus; test: Time during which activity returned to baseline level in rat by oral administration; format: functional
[24] = organism: Rattus norvegicus; test: Degradation rate constant for dopamine transporter in nucleus accumbens was determined; format: functional
[25] = organism: Rattus norvegicus; test: Degradation rate constant for dopamine transporter in striatum was determined; format: functional
[26] = organism: Rattus norvegicus; test: Half life of recovery for dopamine transporter in nucleus accumbens was determined; format: functional
[27] = organism: Rattus norvegicus; test: Half life of recovery for dopamine transporter in striatum was determined; format: functional
[28] = organism: Rattus norvegicus; format: functional, Cardiac ventricle
[29] = organism: Rattus norvegicus; format: functional, Striatum
[30] = test system: Rattus norvegicus; test: Degradation rate constant for dopamine transporter in nucleus accumbens after intraventricular injection of 100 nmol of compound; format: functional
[31] = test system: Rattus norvegicus; test: Half life of recovery for dopamine transporter in nucleus accumbens after intraventricular injection of 100 nmol of compound; format: functional, organism-based
[32] = test system: Rattus norvegicus; test: Degradation rate constant for dopamine transporter in striatum after intraventricular injection of 100 nmol of compound; format: functional
[33] = test system: Rattus norvegicus; test: Half life of recovery for dopamine transporter in striatum after intraventricular injection of 100 nmol of compound; format: functional, organism-based

Row | SMILES | IC50 [3] | Ki [3] | IC50 [4] | Ki [5] | IC50 [6] | ED50 [10] | ED50 [11] | Maximal locomotor activity (% of cocaine) [14] | Time [16] | Peak time [18] | other results
1 | CN1CCc2cc(Cl)c(O)cc2[C@@H](c2ccccc2)C1 |  |  |  |  |  |  |  |  |  |  | NC [1]: inactive; NC [2]: inactive
2 | CN(C)C(=O)C1C2CC[C@H](C[C@@H]1c1ccc(Cl)cc1)N2C (stereo partly specified) | 1080 nM | 98 nM | 1.38 nM | 566 nM | 940 nM |  |  |  |  |  | 
3 | C[C@H]1C2CCCC1(c1cccc(O)c1)CCN2CCc1ccccc1 (stereo partly specified) |  |  |  |  |  |  |  |  |  |  | Ke [7]: 0.338 nM; Ke [8]: 1.34 nM
4 | COC(=O)C1C2CC[C@H](C[C@@H]1c1ccc(Cl)c(C)c1)N2C (stereo partly specified) | 10.5 nM | 0.95 nM | 0.81 nM | 2.8 nM | 36.2 nM | 0.21 mg/kg | 2.2 mg/kg | 75% | >4 h | 30 min | IC50 [9]: 1 nM; AD50 [12]: 3.5 mM/kg; IC50 [13]: 0.8 nM; IC50 [15]: 0.6 nM; AD50 [17]: 1.5 mM/kg
5 | CN1C2CCC1C(C(=O)Oc1ccccc1)C(c1ccc(Cl)cc1)C2 (stereo unspecified) |  | 214 nM |  | 1780 nM |  | 2.28 mg/kg | 0.93 mg/kg | 128% | >4 h | 30 min | 
6 | CC1CN(C)C2CCCC1(c1cccc(O)c1)C2 (stereo unspecified) |  |  |  |  |  |  |  |  |  |  | Ke [7]: 25.2 nM; Ke [8]: 76.4 nM
7 | COC(=O)C1C2CC[C@H](C[C@H]1c1ccc(Cl)c(Cl)c1)N2C (stereo partly specified) | 3.13 nM | 0.28 nM |  | 10.8 nM | 18 nM |  |  |  |  |  | 
8 | CCc1ccc([C@H]2C[C@H]3CCC(N3)C2C(=O)OC)cc1 (stereo partly specified) | 8.1 nM | 0.74 nM | 50 nM | 74 nM | 122 nM |  |  |  |  |  | 
9 | Cc1ccc(-c2cc(C3C4CC[C@H](C[C@@H]3c3ccc(Cl)cc3)N4C)on2)cc1 (stereo partly specified) | 5740 nM | 522 nM | 4.09 nM | 1030 nM | 1710 nM | 5.6 mg/kg | 4.8 mg/kg | 71% | >4 h | 70 min | ED50 [19]: 14.4 mg/kg; Cocaine [20]: 77%; ED50 [21]: 3.54 mg/kg; Peak time [22]: 60 min; Time [23]: >4 h
10 | Cc1ccc([C@H]2C[C@H]3CCC(C2c2ccccc2)N3C)cc1 (stereo partly specified) | 11000 nM | 1000 nM | 1.96 nM | 289 nM | 480 nM |  |  |  |  |  | 
11 | COC(=O)C1C2CC[C@H](C[C@@H]1c1ccc(C)cc1)N2 (stereo partly specified) | 500 nM | 46 nM | 33.6 nM | 5.4 nM | 9 nM |  |  |  |  |  | 
12 | CN1C2CC[C@@H]1C[C@H](c1ccc(Cl)cc1)C2C(=O)N1CCCC1 (stereo partly specified) | 12400 nM | 1130 nM | 1.38 nM | 2370 nM | 3940 nM |  |  |  |  |  | 
13 | CC1C2CCCC1(c1cccc(O)c1)CCN2C (stereo unspecified) |  |  |  |  |  |  |  |  |  |  | Ke [7]: 21.2 nM; Ke [8]: 105 nM
14 | COC(=O)[C@H]1[C@@H](OC(=O)c2ccccc2)C[C@@H]2CC[C@H]1N2C [COCAINE] |  |  |  |  |  | 2.5 mg/kg | 21 mg/kg | 100% | <2 h | 0 min | Change [24]: -30% and -27%; Change [25]: -17% and -16%; Change [26]: 43%; Change [27]: 22%
15 | CN1C2CC[C@@H]1C[C@H](c1ccc(Cl)cc1)C2C(=O)OCCc1ccc(N)cc1 (stereo partly specified) |  |  | 2.16 nM |  |  |  |  |  |  |  | 
16 | Cc1ccc([C@H]2C[C@H]3CCC(C2C(=O)OC(C)C)N3C)cc1 (stereo partly specified) | 6090 nM | 554 nM | 6.45 nM | 1160 nM | 1930 nM | 4.4 mg/kg | 3.1 mg/kg | 103% | >4 h | 10 min | ED50 [19]: 4.7 mg/kg; Cocaine [20]: 116%; ED50 [21]: 5.7 mg/kg; Peak time [22]: 100 min; Time [23]: >4 h
17 | COC(=O)[C@@H]1C2CC[C@H](C[C@@H]1c1ccccc1)N2C.Cl |  |  |  | 554 nM |  | 0.35 mg/kg | 2.1 mg/kg | 146% | 2 h | 10 min | 
18 | COC(=O)C1C2CC[C@H](C[C@@H]1c1cccc(I)c1)N2 (stereo partly specified) | 39 nM | 3.6 nM | 26 nM | 964 nM | 1600 nM |  |  |  |  |  | 
19 | CN1C2CC[C@@H]1C[C@H](c1ccc(Cl)cc1)C2C(=O)OCCc1ccc(N=S)cc1 (stereo partly specified) | 7.1 nM | 0.65 nM | 5.3 nM | 843 nM | 1400 nM |  |  |  |  |  | Transporter production rate (r) [28]: 106 fM/mg/day; Transporter production rate (r) [29]: 202 fM/mg/day; Transporter deg rate const (k) [30]: 0.3 day⁻¹; T1/2 [31]: 50.4 h; Transporter deg rate const (k) [32]: 0.34 day⁻¹; T1/2 [33]: 50.4 h
